Patent US11865506B2, “Pyraclostrobin microcapsule based on sodium alginate and preparation method” (ANHUI AGRICULTURAL UNIVERSITY, priority 2022, dated 2024)
Values after ≈ are worked out from the molar mass of the structure shown. Like-named read-outs stand apart in the source and are kept apart here.

Assays:
[1] = organic solvent; cited from earlier work
[2] = system: Fusarium pseudograminearum; experiment: microbe, parasite or virus in culture; assay type: cell-based
Protocol: By mycelium growth rate method, the fungicidal activity of pyraclostrobin original drug and the prepared pyraclostrobin SA microcapsules against Fusarium pseudograminearum is determined, and the release rule of the microcapsules in the culture medium is determined.
Inclined experiment tube storage method: inoculate the strain of Fusarium pseudograminearum on a PDA plate for activation treatment, place the plate in a constant temperature incubator at 25° C. after sealing, and incubate for 3 days. Pick out the edge bacteria, transfer to a PDA slant experiment tube, and cultivate at a constant temperature at 25° C. until the colonies cover the surface of the slant, then put the experiment tube into a 4° C. refrigerator for storage until use. […]
Activate the Fusarium pseudograminearum on a drug-free PDA plate in advance, after culturing at 25° C. for 3 days, beat the fungus cake along the edge of the colony, pick the fungus cake with an inoculation needle every 0, 4, 8, 12, and 16 days and transfer it reversely to the center of the drug-containing medium; seal and store the culture dish, and place in a constant temperature incubator at 25° C. for cultivation. After each cultivation for 3 days, the diameter of the colony is measured by the cross method, and the average value is used to calculate the antibacterial rate as follows. […]

[3] = 25° C., cited from earlier work
[4] = Photostability under ultraviolet light; assay type: physicochemical
Source text: (§1) The cold storage stability, hot storage stability, and photostability are experimented respectively.
Determination of the active ingredient residual concentration of the original drug and microcapsules under the same ultraviolet light conditions, the results are shown in Table 15.

[5] = Cold and hot storage stability; assay type: physicochemical; conditions: for Stability / decomposition rate on cold storage: stored at 4° C. and −20° C.
Source text: as §1

| SMILES | Toxicity [1] | EC50 [2] [µg/mL] | Solubility to original drug ([3]; in acetone) [g/100 mL] | Solubility to original drug ([3]; in ethanol) [g/100 mL] | Solubility to original drug ([3]; in ethyl acetate) [g/100 mL] | Solubility to original drug ([3]; in methanol) [g/100 mL] | Photolysis rate constant ([4]; Ct = C0 × e^−kt) | Residual concentration of the active ingredient ([4]; final time of 60 minutes) [µg/mL] | Photolysis half life ([4]; first-level kinetic equation) [min] | half-life at 9.986 μg/mL ([4]; first-level kinetic equation, read-out: Photolysis half life) [min] | Decomposition rate ([5]; storage at 25° C. for 30 days) [%] | Decomposition rate ([5]; storage at 54° C. for 30 days) [%] | Stability / decomposition rate on cold storage [5] | Stability / decomposition rate on cold storage ([5]; listed as pyraclostrobin original drug) |
| --- | --- | --- | --- | --- | --- | --- | --- | --- | --- | --- | --- | --- | --- | --- |
| CC(C)=O [Acetone] | Low | – | – | – | – | – | – | – | – | – | – | – | – | – |
| COC(=O)N(OC)c1ccccc1COc1ccn(-c2ccc(Cl)cc2)n1 [Original drug, pyraclostrobin] | – | 0.097 (≈ 0.25 µM) | ≥65 | ≥10 | ≥65 | ≥10 | 0.03 | 1.384 | 21.01 | 21 | 2.2 | 40.25 | better stability | extremely low |
| CCOC(C)=O [Ethyl acetate] | Low | – | – | – | – | – | – | – | – | – | – | – | – | – |
